These results are taken from PubChem BioAssay (NCI).

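Briefly, cells in 96-well plates were exposed to five compound concentrations for 48 h, and endpoints were estimated by linear interpolation. TGI: total growth inhibition.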 Where only a bound is given, the exact number is not on record here.

For orientation: TGI means the concentration at which net growth stops. High values mean less potent growth arrest, low ones more potent growth arrest.

Some test systems named below: OVCAR-4 ovarian; HCT-15 colon; M14 melanoma; MDA-MB-231 breast; DU-145 prostate; MDA-N; CAKI-1 renal; KM12 colon; NCI-H23 lung; SK-OV-3 ovarian; TK-10 renal; UACC-62 melanoma; MCF7 breast; SNB-19 CNS; ACHN renal; UACC-257 melanoma; EKVX NSCLC; SF-268 CNS; A549 NSCLC.
What all share (experiment): DTP human tumour cell line panel, 48 h

Turning to `COc1ccc2c(c1)C(OC)C1c3c(cc4c(c3-2)OCO4)CCN1C` (configuration not stated), the TGI in the assay with OVCAR-4 ovarian was 10.3 µM; with HCT-15 colon it was 10.2 µM; in the assay on M14 melanoma, 7.84 µM; in the assay on MDA-MB-231 breast it was 9.59 µM; with DU-145 prostate it was greater than 52 µM; in the assay with MDA-N it was 12 µM. Besides, the TGI in the assay on CAKI-1 renal was 7.32 µM; in the assay on KM12 colon, 18.6 µM; in the assay on NCI-H23 lung it was 11.1 µM; in the assay on SK-OV-3 ovarian it was 23.1 µM; in the assay with TK-10 renal, greater than 63.8 µM; in the assay on UACC-62 melanoma, 5.08 µM. Further, the TGI worked out at 8.13 µM in the assay on MCF7 breast; 19.3 µM with SNB-19 CNS; 8.03 µM with ACHN renal; 13 µM in the assay with UACC-257 melanoma; 24.3 µM with EKVX NSCLC; 20.2 µM with SF-268 CNS. The TGI in the assay on A549 NSCLC amounted to 9.87 µM.

Take `O=C(COc1ccccc1)N(C(=O)N1CCN(c2ccccc2)CC1)S(=O)(=O)c1ccccc1`: the TGI with OVCAR-4 ovarian, with HCT-15 colon, with M14 melanoma, with MDA-MB-231 breast, in the assay with DU-145 prostate and in the assay on MDA-N was greater than 100 µM throughout. For the same molecule, the TGI with CAKI-1 renal, in the assay with KM12 colon, in the assay with NCI-H23 lung, in the assay with SK-OV-3 ovarian, with TK-10 renal and in the assay on UACC-62 melanoma was greater than 100 µM throughout. In addition, the TGI with MCF7 breast, in the assay on SNB-19 CNS, with ACHN renal, in the assay with UACC-257 melanoma, with EKVX NSCLC and in the assay with SF-268 CNS was greater than 100 µM throughout. The TGI in the assay on A549 NSCLC was greater than 100 µM.

For the molecule `CCC1(CC)N=C(C(F)(F)F)c2cc(C(=O)C(F)(F)F)c3ccccc3c2N1`, the TGI in the assay with OVCAR-4 ovarian was greater than 100 µM; in the assay on HCT-15 colon it was greater than 100 µM; with M14 melanoma, 25.3 µM; with MDA-MB-231 breast it was 12.3 µM; with DU-145 prostate, 21.5 µM; with MDA-N, 15.7 µM. The TGI with CAKI-1 renal was greater than 100 µM; with KM12 colon, greater than 100 µM; in the assay with NCI-H23 lung it was 11.2 µM; in the assay on SK-OV-3 ovarian, 49.7 µM; with TK-10 renal, 61.3 µM; with UACC-62 melanoma it was 13.3 µM. Further, the TGI in the assay on MCF7 breast is 27.4 µM; in the assay on SNB-19 CNS it was greater than 100 µM; in the assay on ACHN renal it was greater than 100 µM; in the assay on UACC-257 melanoma, 33.9 µM; with EKVX NSCLC, 64.2 µM; with SF-268 CNS it was 27 µM. The molecule further had a TGI with A549 NSCLC of 60.7 µM.
